Experimental data as given in the supplement of paper PMC10307832.

What was measured:
Assay in all cases: relative viability (nuclei count vs DMSO), 5 days (fraction); higher = more cells survive
[1] = compound: Cc1ccc(Nc2nccc(N(C)c3ccc4c(C)n(C)nc4c3)n2)cc1S(N)(=O)=O [Pazopanib] + NC(=O)Nc1cc(-c2cccc(F)c2)sc1C(=O)N[C@H]1CCCNC1 [AZD7762] (partner 0.2 µM)
Summary of the method: (§1)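 The day after seeding in 1536-well plates, lung cancer cell lines were treated by pin tool with a single drug, or with a fixed anchor-drug dose together with five library-drug doses (not always all listed) in √10 steps. After 5 days, a combined fix-and-stain solution (final 0.05% Triton X-100, 1% formaldehyde, 1 ug/ml Hoechst) was added. Nuclei counted on 4× images gave relative viability as treated counts over vehicle counts, reported as the median of duplicate plates.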

[2] = compound: Cc1ccc(Nc2nccc(N(C)c3ccc4c(C)n(C)nc4c3)n2)cc1S(N)(=O)=O [Pazopanib] + CCNC(=O)c1noc(-c2cc(C(C)C)c(O)cc2O)c1-c1ccc(CN2CCOCC2)cc1 [Luminespib] (partner 0.01 µM)
Summary of the method: as §1

[3] = compound: Cc1ccc(C(=O)Nc2ccc(CN3CCN(C)CC3)c(C(F)(F)F)c2)cc1C#Cc1cnc2cccnn12 [Ponatinib] + COc1cccc2cc(-c3nc([C@H]4CC[C@H](C(=O)O)CC4)n4ncnc(N)c34)[nH]c12 [OSI-027] (partner 0.5 µM)
Summary of the method: as §1

[4] = compound: Cc1ccc(Nc2nccc(N(C)c3ccc4c(C)n(C)nc4c3)n2)cc1S(N)(=O)=O [Pazopanib] + CS(=O)(=O)CCNCc1ccc(-c2ccc3ncnc(Nc4ccc(OCc5cccc(F)c5)c(Cl)c4)c3c2)o1 [Lapatinib] (partner 2 µM)
Summary of the method: as §1

Cell Line	relative viability ([1]; first compound 0.01 µM)	relative viability ([1]; first compound 0.03162 µM)	relative viability ([1]; first compound 0.1 µM)	relative viability ([1]; first compound 0.3162 µM)	relative viability ([1]; first compound 1 µM)	relative viability ([2]; first compound 0.03162 µM)	relative viability ([2]; first compound 0.1 µM)	relative viability ([2]; first compound 0.3162 µM)	relative viability ([2]; first compound 1 µM)	relative viability ([3]; first compound 0.002 µM)	relative viability ([3]; first compound 0.006325 µM)	relative viability ([3]; first compound 0.06325 µM)	relative viability ([3]; first compound 0.2 µM)	relative viability ([4]; first compound 0.01 µM)	relative viability ([4]; first compound 0.03162 µM)	relative viability ([4]; first compound 0.1 µM)	relative viability ([4]; first compound 0.3162 µM)	relative viability ([4]; first compound 1 µM)	relative viability ([2]; first compound 0.01 µM)
LK-2	0.283	0.411	0.398	0.451	0.354	0.208	0.176	0.168	0.219	0.151	0.217	0.162	0.147	0.764	0.804	0.959	1	0.952	
LOU-NH91	0.653	0.758	0.78	0.836	0.815	0.336	0.331	0.324	0.275	0.675	0.762	0.746	0.741	0.646	0.744	0.748	0.759	0.872	0.335
LU99A		0.347	0.466	0.343	0.384	0.226	0.244	0.279	0.258	0.299	0.319	0.32	0.278	0.727	0.978	0.992	1.12	1.07	0.245
LXF-289	1.26	1.15	1.12	1.11	1.06	0.713	0.69	0.67	0.729	0.735	0.808	0.916	0.714	0.908	0.935	0.902	0.909	0.897	0.74
NCI-H23	0.223	0.257	0.221	0.374	0.271	0.209	0.219	0.226	0.231	0.621	0.645	0.53	0.456	0.887	1.3	1.41	1.09	1.14	0.227
NCI-H322M	0.559	0.539	0.617	0.617	0.669	0.954	0.871	0.945	0.844	0.595	0.425	0.508	0.425	0.587	0.645	0.653	0.632	0.618	0.956
NCI-H358	0.484	0.571	0.693	0.633	0.558	0.374	0.284	0.337	0.441	0.813	0.816	0.998	0.672	0.482	0.53	0.356	0.442	0.489	0.398
NCI-H460	0.766	0.619	0.551	0.637	0.597	0.0326	0.033	0.0276	0.0432	0.605	0.56	0.637	0.49	1.05	1.06	1.04	0.946	1.15	0.0281
NCI-H596	0.925	1.1	1.03	1.16	1.03	1.05	1.02	0.908	1.19	0.653	0.619	0.516	0.392	0.931	1.03	1.03	0.981	1.17	
NCI-H647	0.373	0.635	0.469	0.428	0.546	0.124	0.199	0.217	0.14	0.565	0.716	0.69	0.502	0.87	1.21	1.17	1.08	1.16	0.244
NCI-H650	0.948	1.07	1.09	0.942	0.904	0.773	0.669	0.813	0.735	0.378	0.49	0.456	0.466	0.814	1.08	0.933	0.909	1.36	0.682
NCI-H727	0.618		0.609	0.663	0.562	0.634	0.381	0.266	0.262	0.567	0.558	0.617	0.508	0.79	0.988	0.801	0.878	0.891	0.346
NCI-H838	1.04	0.911	1.04	0.909	0.946	0.351	0.282	0.21	0.322	0.416	0.416	0.482	0.349	0.961	1.09	0.97	1.02	1.13	0.351
NCI-H1355	0.71	0.802	0.827	0.727	0.719	0.709	0.816	0.675	0.838	0.409	0.48	0.43	0.385		0.845	0.93	0.989	1.17	0.695
NCI-H1395	0.36	0.366	0.389	0.38	0.387	0.588	0.642	0.781	0.62	0.519	0.57	0.558	0.505	0.788	1.27	0.981	1.05	1.1	0.566
NCI-H1437	1.05	1.13	1.19	1.03	1.03	1.16	1.13	1.11	1.07	0.809	0.864	1.01	0.75	0.919	0.877	0.823	0.815	0.785	1.25
NCI-H1651	0.438	0.451	0.484	0.437	0.435	0.869	0.785	0.741	0.878	0.639	0.638	0.825	0.66	0.76	0.876	0.885	0.857	1.12	0.853

Cell Line	relative viability ([1]; first compound 0.01 µM)	relative viability ([1]; first compound 0.03162 µM)	relative viability ([1]; first compound 0.1 µM)	relative viability ([1]; first compound 0.3162 µM)	relative viability ([1]; first compound 1 µM)	relative viability ([2]; first compound 0.03162 µM)	relative viability ([2]; first compound 0.1 µM)	relative viability ([2]; first compound 0.3162 µM)	relative viability ([2]; first compound 1 µM)	relative viability ([3]; first compound 0.002 µM)	relative viability ([3]; first compound 0.006325 µM)	relative viability ([3]; first compound 0.06325 µM)	relative viability ([3]; first compound 0.2 µM)	relative viability ([4]; first compound 0.01 µM)	relative viability ([4]; first compound 0.03162 µM)	relative viability ([4]; first compound 0.1 µM)	relative viability ([4]; first compound 0.3162 µM)	relative viability ([4]; first compound 1 µM)	relative viability ([2]; first compound 0.01 µM)
NCI-H1666	0.871	0.828	0.788	0.823	0.848	1.08	0.99	1.06	1.06	0.727	0.762	0.872	0.79	0.644	0.677	0.718	0.763	0.972	1.03
NCI-H1734	0.519	0.561	0.555	0.689	0.623	0.207	0.182	0.179	0.208	0.58	0.589	0.521	0.449	0.837	0.777	1.13	1.18	1.09	0.18
NCI-H1755	0.434	0.433	0.453	0.42	0.439	0.42	0.261	0.448	0.527	0.652	0.694	0.707	0.595	0.943	0.993	1.02	1.02	1.02	0.422
NCI-H1792		0.704	0.701	0.67	0.662	0.394	0.476	0.423	0.422	0.621	0.747	0.841	0.586		0.863	0.918	0.847	0.823	
NCI-H1793		0.674	0.481	0.593	0.44	0.235	0.198	0.186	0.235	0.281	0.256	0.273	0.175		0.705	0.525	0.755	0.852	
NCI-H1915	0.716	0.658	0.667	0.68	0.616	0.805	0.889	0.701	0.699	0.546	0.651	0.639	0.56	0.898	1.03	1.01	0.976	0.941	0.871
NCI-H1944	0.442	0.504	0.595	0.571	0.555	0.784	0.771	0.86	0.857	0.387	0.43	0.44	0.394	0.561	0.84	0.949	0.923	0.953	
NCI-H1975	0.612	0.667	0.637	0.76	0.692	0.326	0.275	0.272	0.331	0.602	0.575	0.47	0.503	0.798	0.822	0.875	0.873	0.907	0.157
NCI-H1993		0.789	0.734	0.883	0.645	0.728	0.885	0.885	0.913	0.516	0.495	0.469	0.567	0.69	0.853	0.573	0.797	0.927	
NCI-H2085	0.98	0.988	0.928	0.952	1.06	0.41	0.5	0.434	0.425	0.624	0.704	0.753	0.727	0.511	0.794	0.762	0.785	0.853	0.461
NCI-H2087	1.36	1.23	1.47	1.18	1.12	0.174	0.171	0.165	0.159	0.667	0.525	0.593	0.563	1.09	0.988	0.99	1.15	1.02	0.162
NCI-H2126	0.963	0.947	1.07	0.959	1.04	0.928	0.903	0.846	0.946	0.779	0.818	0.845	0.563	0.611	0.713	0.81	0.715	0.821	0.93
NCI-H2170	0.744	0.967	0.94	0.896	0.815	0.766	0.712	0.532	0.627	0.698	0.724	0.749	0.694	0.242	0.264	0.293	0.316	0.269	0.675
NCI-H2347	0.682	0.711	0.773	0.822	0.787	0.453	0.898	0.309	0.471	0.373	0.421	0.371	0.239	0.86	0.971	1.08	0.989	1.02	0.299
NCI-H2405	0.718	0.772	0.702	0.751	0.74	0.837	0.821	0.815	0.73	0.613	0.642	0.605	0.631	0.922	1.1	1.06	1.31	1.2	0.728
NCI-H3122	0.962	0.952	1.1	0.95	0.987	0.0909	0.106	0.0886	0.0721	1	0.988	1.02	0.834	1.09	1.04	1.17	1.01	1.08	0.0969
PC-3 [JPC-3]		0.742	0.725	0.926	0.937	0.59	0.65	0.69	0.65	0.745	0.76	0.754	0.69	0.367	0.463	0.493	0.468	0.451	0.784
